# Experimental data: US9861592B2, “Methods and compositions for treating neurodegenerative diseases” (Golden Biotechnology Corporation, priority 2012, dated 2018)
# System: PC12 cells
# Experiment: CCK-8 cell viability assay, titration of Compound 1 in NGF-induced PC12 cells
# Format: cell-based
# Details: Rattus norvegicus, PC-12, 48 h
# Experimental: Rat pheochromocytoma PC12 cells, purchased from Bioresource Collection and Research Center (BCRC), were cultured in RPMI1640 medium (Gibco, MD) containing 10% fetal calf serum, 5% horse donor serum, 100 μg/ml streptomycin, 100 units/ml penicillin, 2 mM L-glutamine, and maintained in humidified incubator at 37° C. with 5% CO2. Cells were transferred twice a week. Experiments were carried out in 96-well plates coated with poly-D-lysine (1 mg/mL) to assist cell adhesion. PC12 cells were grown on medium with mouse submaxillary-gland nerve growth factor (NGF 2.5S, 100 ng/ml; Invitrogen, Carlsbad, Calif.) for 48 h to induce differentiation into neuron-like cells before all experiments conducted in this study.
# To optimize the exemplary Compound 1 concentration for NGF-induced PC12 neural model, titration experiments were performed to determine the IC50 values of Compound 1 in PC12. PC12 Cells (1×10^4 cells) were incubated with various concentrations of Compound 1 (0.001, 0.01, 0.1, 1, 10, 100 μg/ml in a 10% serum-supplemented medium; 0.3, 1, 3, 10, 30, 100 μg/ml in serum-free medium) for 48 h.
# The viability of cells was measured using the Cell Counting Kit-8 (CCK-8, Enzo, Life Sciences). A highly water-soluble tetrazolium salt, WST-8, is reduced by dehydrogenases in cells to give a yellow-colored product (formazan), which is soluble in the culture medium. The amount of the fomazan dye generated by the activity of dehydrogenases in cells is directly proportional to the number of living cells. After treatments, the CCK-8 solution was added to each well of plates and incubates the plate for 4 h in the incubator. The concentration of the formazan product was determined spectrophotometrically at an absorbance wavelength 450 nm and cell viability was expressed as a percentage of the corresponding control.
structure (smiles),measurement,setting,value
"COC1=C(OC)C(O)C(C/C=C(\C)CC/C=C(\C)CCC=C(C)C)C(C)C1=O (stereo not drawn) [Compound 1, 4-hydroxy-2,3-dimethoxy-6-methyl-5-(3,7,11-trimethyldodeca-2,6,10-trienyl)cyclohex-2-enone]",IC50,"PC12, 10% serum supplemented media, unit as printed in b23",58 µg/mL
same,IC50,"PC12, 10% serum supplemented media, unit as printed in b151",58 µg/mL
same,IC50,"PC12, serum-free media",13.4 µg/mL
